Test results reported in US20180094248A1, “Necroptosis Signaling as a Therapeutic Target for Alzheimer's Disease” (Arizona Board of Regents on behalf of Arizona State …, priority 2016, published 2018).

Columns and labels:
[1] = system: primary cortical neurons isolated from APP/PS1 and wild type mice; test: GFP fluorescence in live AAV-GFP infected primary cortical neurons treated with Nec1S or vehicle; type: cell-based, mouse; settings: DIV 15; 10 μM at DIV 7 and 11; APP/PS1-veh vs the other three groups incl. APP/PS1-Nec1S
Protocol: (§1) At DIV 1, we infected primary cortical neurons isolated from APP/PS1 and wild type mice with an adeno-associated virus (AAV) expressing the green fluorescent protein (GFP) under the neuronal promotor CamKII. At DIV 7 and 11, neurons from the two genotypes were treated with 10 μM Nec1S or vehicle. We then measured GFP fluorescence in live cells as an indication of live neurons.
Primary neuronal cultures—For the GFP experiments: Primary neurons were isolated from APP/PS1 and NonTg Po pups. The tissue was then dissociated in Neurobasal media (Thermo Fisher Scientific) and spun down for 3 minutes at 5,000 g at 4° C. The supernatant was discarded and the pellet was re-suspended in 1 ml of Neurobasal media supplemented with B27 (Thermo Fisher Scientific). An equal volume per each sample was seeded into a Poly-D-Lysine-coated (10 mg/mL, Sigma-Aldrich) black 96-well tissue culture plate. […] Neurons were treated for a total of 15 days and the GFP fluorescence was measured every 4 days. […] All fluorescent measurements (excitation 488 nm, emission 509 nm) were performed using the Synergy HT multi-mode microplate reader with the Gen5 software (BioTek, Winooski, Vt.). The reader was pre-heated to 37° C. to maintain optimal conditions for the neurons during the measurements. […]

[2] = system: phosphorylated MLKL; test: Western blot of total and phosphorylated MLKL in primary neurons (AAV-GFP experiment); type: cell-based, mouse
Protocol: as §1
Western blot and ELISA: The proteins were run using reducing conditions in precast gels (Thermo Fisher Scientific) and transferred to nitrocellulose membranes (iBlot, Thermo Fisher Scientific). […] The blots were then washed with TBS-T, and imaged/quantified using a LICOR Odyssey CLx (LI-COR Biosciences) attached to a Dell computer (OptiPlex 7010) running Windows 7 and Image Studio (version 1.0.11, LI-COR Biosciences). […]
Primary neuronal cultures—For the GFP experiments: Primary neurons were isolated from APP/PS1 and NonTg Po pups. […] Neurons were treated for a total of 15 days and the GFP fluorescence was measured every 4 days. […] All fluorescent measurements (excitation 488 nm, emission 509 nm) were performed using the Synergy HT multi-mode microplate reader with the Gen5 software (BioTek, Winooski, Vt.). The reader was pre-heated to 37° C. to maintain optimal conditions for the neurons during the measurements. […]

CN1C(=O)NC(Cc2c[nH]c3c(Cl)cccc23)C1=O (stereo not drawn) [Nec1S, 5-((7-chloro-1 H-indol-3-yl)methyl)-3-methylimidazolidine-2,4-dione]
GFP fluorescence in live cells (indication of live neurons) [1]: APP/PS1-veh group had lower GFP levels compared to the other three groups | pMLKL level ([2]; DIV 11, all four groups, AAV-GFP experiment): not detectable | ratio pMLKL/MLKL ([2]; DIV 15, 10 μM, APP/PS1-veh group vs the other three groups incl. APP/PS1-Nec1S): statistically different compared to the other three groups
